Assay results reported in ChEMBL document CHEMBL3632489, “Inhibitory kinetics of novel 2,3-dihydro-1H-inden-1-one chalcone-like derivatives on mushroom tyrosinase” (Bioorg Med Chem Lett, 2015).
The source made the active and inactive calls. The calls are words filed in the database; no cut-off is given here.

Assays:
[1] = target: T1, Tyrosinase (Agaricus bisporus) (UniProt O42713); test: Potency index, ratio of IC50 for kojic acid to IC50 for test compound for inhibition of mushroom tyrosinase diphenolase activity
T1 sequence (whole entry): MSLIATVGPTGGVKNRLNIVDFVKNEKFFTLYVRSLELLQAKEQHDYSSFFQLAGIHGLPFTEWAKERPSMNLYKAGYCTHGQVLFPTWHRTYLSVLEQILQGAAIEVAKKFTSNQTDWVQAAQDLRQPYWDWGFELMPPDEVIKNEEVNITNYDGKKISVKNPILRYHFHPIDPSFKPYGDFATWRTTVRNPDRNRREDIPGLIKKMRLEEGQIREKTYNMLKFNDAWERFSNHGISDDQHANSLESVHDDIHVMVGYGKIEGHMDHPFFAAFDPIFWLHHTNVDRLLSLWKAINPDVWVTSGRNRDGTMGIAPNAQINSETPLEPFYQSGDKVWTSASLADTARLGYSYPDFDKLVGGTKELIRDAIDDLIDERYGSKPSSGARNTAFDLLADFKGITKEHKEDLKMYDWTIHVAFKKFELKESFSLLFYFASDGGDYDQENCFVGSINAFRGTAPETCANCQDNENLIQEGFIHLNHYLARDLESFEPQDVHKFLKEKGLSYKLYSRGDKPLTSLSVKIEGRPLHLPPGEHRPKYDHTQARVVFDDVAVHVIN

[2] = target: T1, Tyrosinase (Agaricus bisporus); test: Reversible inhibition of mushroom tyrosinase diphenolase activity using L-DOPA as substrate at 0.25 to 2.0 uM
[3] = target: T1, Tyrosinase (Agaricus bisporus); test: Competitive inhibition of mushroom tyrosinase diphenolase activity using L-DOPA as substrate at 1.25 to 20 uM by Lineweaver Burk plot analysis
Tyrosinase [4] = target: T2, Tyrosinase (Agaricus bisporus, UniProt O42713)
T2 sequence (O42713 whole entry): T1 sequence (whole entry)

Tyrosinase [5] = target: T2, Tyrosinase; remark: listed apart in the source
Description: Competitive inhibition of mushroom tyrosinase polyphenol oxidase activity using L-DOPA as substrate by Dixon plot analysis

[6] = target: T1, Tyrosinase (Agaricus bisporus); test: Inhibition of mushroom tyrosinase diphenolase activity using L-DOPA as substrate

| Compound | Ratio IC50 [1] | inhibition [2] | inhibition [3] | IC50 (Tyrosinase [4]) [µM] | Ki (Tyrosinase [5]) [µM] | inhibition [6] |
| --- | --- | --- | --- | --- | --- | --- |
| O=C1/C(=C\c2ccc(O)c(O)c2)Cc2ccccc21 | 3.35 | Active | Active | 8.2 | 8.7 | Dose-dependent effect |
| O=C1/C(=C\c2ccc(O)cc2O)Cc2ccccc21 | 2.23 | Active | Active | 12.3 | 10.3 | Dose-dependent effect |
